This is an account of results in ChEMBL document CHEMBL4330072, “Neuroprotective effects of a novel carnosine-hydrazide derivative on hippocampal CA1 damage after transient cerebral ischemia” (Eur J Med Chem, 2019).

A short description of series [1]: Quenching activity of compound in pH 7.4 PBS assessed as 4-HNE consumption at 2 mmol/L after 1 hr by HPLC analysis. In kind it is functional.
Series [2] can be described thus: Quenching activity of compound in pH 7.4 PBS assessed as 4-HNE consumption at 2 mmol/L after 30 mins by HPLC analysis relative to control. In kind it is functional.
The subject of series [3] is Meriones unguiculatus. Put plainly: Neuroprotective activity against BCCO-induced transient cerebral ischemia in mongolian gerbil hippocampal CA1 region assessed as increase in viable neurons at 100 mg/kg, ip administered immediately after BCCO treatment and measured after 7 days by hematoxylin and eosin staining-based light microscopic analysis. In kind it is functional, organism-based.

The test system of series [4] is PC-12. Description: Neuroprotective activity against 4-HNE-induced toxicity in rat PC12 cells at 30 mM preincubated for 30 mins followed by compound wash and 4-HNE addition measured after 24 hrs by MTT assay relative to control. In kind it is functional. On the technique in general: Formazan colour is commonly taken as a measure of viable cells.
Series [5] relates to Meriones unguiculatus. Put plainly: Neuroprotective activity against BCCO-induced transient cerebral ischemia in mongolian gerbil hippocampal CA1 region assessed as increase in viable neurons at 20 mg/kg, ip administered 20 mins prior to BCCO treatment and measured after 7 days by hematoxylin and eosin staining-based light microscopic analysis relative to control. In kind it is functional.

The test system of series [6] is Meriones unguiculatus. Put plainly: Neuroprotective activity against BCCO-induced transient cerebral ischemia in mongolian gerbil hippocampal CA1 region assessed as increase in Hsp70 activity at 20 mg/kg, ip administered 20 mins prior to BCCO treatment measured after 24 hrs by immunostaining analysis. In kind it is functional, organism-based.
Series [7] deals with Meriones unguiculatus. Description: Neuroprotective activity against BCCO-induced transient cerebral ischemia in mongolian gerbil hippocampal CA1 region assessed as increase in viable neurons at 100 mg/kg, ip administered immediately after BCCO treatment and measured after 7 days by hematoxylin and eosin staining-based light microscopic analysis relative to control. In kind it is functional.

Series [8] deals with PC-12. Description: Cytotoxicity against rat PC12 cells at 1 to 50 mM after 30 mins by MTT assay. In kind it is cell-based. The settings on record: pc-12, 0.5 h, 50000 µM.
In series [9] the test system is PC-12. Description: Neuroprotective activity against 4-HNE-induced toxicity in rat PC12 cells preincubated for 30 mins followed by compound wash and 4-HNE addition measured after 24 hrs by MTT assay. In kind it is functional, cell-based.

Active and inactive are the calls of the source. No cut-off for these calls is given here. Bounds are passed on as bounds.

`NNC(=O)[C@@H](N)Cc1c[nH]cn1`: the result in series [1] was Active. Besides, in series [2], the Activity turned out to be 70%. In addition, the outcome in series [3] was inactive.

As for `NCCC(=O)N[C@@H](Cc1c[nH]cn1)C(=O)O`, in [1], the result was Active. Moreover, the Activity in series [2] came to 20%.

Take `CC(=O)NCCC(=O)N[C@@H](Cc1c[nH]cn1)C(=O)NN`: in series [1], the outcome was Active.

As for `CC(=O)NCCC(=O)N[C@@H](Cc1c[nH]cn1)C(=O)NNC(C)=O`, the outcome in series [1] was Active.

As to `CC(=O)NNC(=O)[C@H](Cc1c[nH]cn1)NC(=O)CCN`, the outcome in series [1] was Active.

Take `NCCC(=O)N[C@@H](Cc1c[nH]cn1)C(=O)NN`: the result in series [1] and in [6] was Active. The Activity is 100% in [4]; above 60% in series [5]; 40% in series [7]; “Non-Toxic” in series [8]; 90% in series [2]; “Dose-dependent effect” in [9].
